# System: MCF-10A cells
# Assay: 1H NMR metabolomics of polar (aqueous) cell extracts
# Type: cell-based, human
# Details: for number of metabolites altered: 48 h
# Method: MDA-MB-231 and MCF-10A cells were seeded in 10-cm-diameter Petri dishes at a density of 6 × 10^5 cells/mL (10 mL per dish) and cultured for 24 h at 37 °C. […] Vehicle solvent control cells received DMSO (0.10% v/v). Samples were collected immediately after 48 h incubation or, to assess cellular recovery, medium was replaced with fresh growth medium (without TAs), and cells were incubated for additional 24 h before collection (48 + 24 h samples). Four independent assays were performed.
# After incubation, culture medium was collected and centrifuged (1000× g, 5 min) and the supernatant stored at −80 °C until analysis. Culture medium without cells was placed under the same conditions and collected. Cell extraction was performed as described by Carrola et al.. Briefly, cells were washed four times with PBS and extracted with a mixture of methanol:chloroform:water (1:1:0.7). The resulting polar and organic phases were collected and then dried under vacuum or under a stream of nitrogen gas, respectively. All samples were stored at −80 °C and, at the time of analysis, dried polar extracts were reconstituted in 600 µL of deuterated phosphate buffer (100 mM, pH 7.4) containing 0.1 mM TSP-d4, while organic extracts were reconstituted in deuterated chloroform containing 0.03% TMS. Regarding medium samples, 540 μL were mixed with 60 μL of D2O containing 0.25% TSP-d4. Prior to analysis, 550 μL of each sample were transferred to 5 mm NMR tubes.
# ^1H NMR spectra of all samples were acquired on a Bruker Avance III HD 500 NMR spectrometer (University of Aveiro, Portuguese NMR Network) operating at 500.13 MHz for ^1H observation equipped with a 5 mm TXI probe. Standard 1D spectra (Bruker pulse programs ‘noesypr1d’, with water suppression, for medium samples and aqueous extracts, and ‘zg’ for organic extracts) were recorded with a 7002.8 Hz spectral width, 32 k data points, a 2 s relaxation delay and 512 scans. Spectral processing comprised exponential multiplication with 0.3 Hz line broadening, zero filling to 64 k data points, manual phasing, baseline correction, and chemical shift calibration to the TSP or TMS signal at 0 ppm. 2D ^1H-^1H total correlation (TOCSY) spectra, ^1H-^13C heteronuclear single quantum correlation (HSQC) spectra and J-resolved spectra were also registered for selected samples to assist spectral assignment. Metabolites were identified with the support of 2D spectra and the spectral reference databases BBIOREFCODE-2-0-0 (Bruker Biospin, Rheinstetten, Germany) and HMDB [28]. Selected signals were then integrated using the AmixViewer software […] (version 3.9.14, Bruker BioSpin, Rheinstetten, Germany) and normalized by the total spectral area. The magnitude of each metabolite change was assessed through the percentage of variation (and its respective error) in exposed samples relatively to controls, and through the effect size (ES) adjusted for small sample numbers (and respective standard error). Metabolite variations with absolute ES greater than 0.8 were expressed in a heatmap, colored as a function of the percentage of variation, employing the R statistical software.
structure (smiles),measurement,setting,value
"C[C@H]1[C@H](C)CC[C@]2(C(=O)O)CC[C@]3(C)C(=CC[C@@H]4[C@@]5(C)CC[C@H](O)C(C)(C)[C@@H]5CC[C@]43C)[C@H]12 [UA, ursolic acid]",1-MethyInicotinamide %var,"UA 20µM, 48h",83.24%
same,3-Hydroxyisobutyrate %var,"UA 20µM, 48h",-30.93%
same,ATP %var,"UA 20µM, 48h",53.13%
same,Acetate %var,"UA 20µM, 48h",0%
same,Ala %var,"UA 20µM, 48h",0%
same,Asp %var,"UA 20µM, 48h",-46.10%
same,Choline %var,"UA 20µM, 48h",30.58%
same,Citrate %var,"UA 20µM, 48h",-38.52%
same,Cr %var,"UA 20µM, 48h",0%
same,Dimethylamine %var,"UA 20µM, 48h",-41.93%
same,Formate %var,"UA 20µM, 48h",0%
same,Fumarate %var,"UA 20µM, 48h",0%
same,GPC %var,"UA 20µM, 48h",160.13%
same,GSH %var,"UA 20µM, 48h",-21.64%
same,Gln %var,"UA 20µM, 48h",0%
same,Glu %var,"UA 20µM, 48h",-23.01%
same,Glucose %var,"UA 20µM, 48h",-85.89%
same,Glucose-1-phosphate %var,"UA 20µM, 48h",-78.61%
same,Gly %var,"UA 20µM, 48h",38.29%
same,His %var,"UA 20µM, 48h",0%
same,Ile %var,"UA 20µM, 48h",156.93%
same,Lactate %var,"UA 20µM, 48h",0%
same,Leu %var,"UA 20µM, 48h",297.70%
same,NADH %var,"UA 20µM, 48h",46.21%
same,PCr %var,"UA 20µM, 48h",0%
same,Phe %var,"UA 20µM, 48h",0%
same,Pro %var,"UA 20µM, 48h",69.18%
same,Tyr %var,"UA 20µM, 48h",0%
same,UDP-GalNAc %var,"UA 20µM, 48h",68.87%
same,UDP-GlcNAc %var,"UA 20µM, 48h",61.45%
same,UDP-Glucose %var,"UA 20µM, 48h",-32.23%
same,Val %var,"UA 20µM, 48h",101.22%
same,myo -Lno %var,"UA 20µM, 48h",0%
same,1-MethyInicotinamide %var,"UA 20µM, 48h+24h",50.44%
same,3-Hydroxyisobutyrate %var,"UA 20µM, 48h+24h",-30.69%
same,ATP %var,"UA 20µM, 48h+24h",0%
same,Acetate %var,"UA 20µM, 48h+24h",10.61%
same,Ala %var,"UA 20µM, 48h+24h",0%
same,Asp %var,"UA 20µM, 48h+24h",-37.26%
same,Choline %var,"UA 20µM, 48h+24h",0%
same,Citrate %var,"UA 20µM, 48h+24h",-32.19%
same,Cr %var,"UA 20µM, 48h+24h",28.29%
same,Dimethylamine %var,"UA 20µM, 48h+24h",-23.93%
same,Formate %var,"UA 20µM, 48h+24h",0%
same,Fumarate %var,"UA 20µM, 48h+24h",-34.69%
same,GPC %var,"UA 20µM, 48h+24h",0%
same,GSH %var,"UA 20µM, 48h+24h",-26.66%
same,Gln %var,"UA 20µM, 48h+24h",25.50%
same,Glu %var,"UA 20µM, 48h+24h",-11.32%
same,Glucose %var,"UA 20µM, 48h+24h",-67.35%
same,Glucose-1-phosphate %var,"UA 20µM, 48h+24h",-40.85%
same,Gly %var,"UA 20µM, 48h+24h",31.50%
same,His %var,"UA 20µM, 48h+24h",0%
same,Ile %var,"UA 20µM, 48h+24h",94.71%
same,Lactate %var,"UA 20µM, 48h+24h",0%
same,Leu %var,"UA 20µM, 48h+24h",130.47%
same,NADH %var,"UA 20µM, 48h+24h",55.81%
same,PC %var,"UA 20µM, 48h+24h",-38.16%
same,PCr %var,"UA 20µM, 48h+24h",0%
same,Phe %var,"UA 20µM, 48h+24h",27.29%
same,Pro %var,"UA 20µM, 48h+24h",78.81%
same,Tyr %var,"UA 20µM, 48h+24h",21.23%
same,UDP-GalNAc %var,"UA 20µM, 48h+24h",0%
same,UDP-GlcNAc %var,"UA 20µM, 48h+24h",0%
same,UDP-Glucose %var,"UA 20µM, 48h+24h",-20.07%
same,Val %var,"UA 20µM, 48h+24h",70.45%
same,myo -Lno %var,"UA 20µM, 48h+24h",0%
same,number of metabolites altered,UA high concentration,22
same,number of metabolites altered,UA low concentration,27
